Values joined by “and” are separate entries in the source; they are usually repeats but may differ in a detail not shown here. Identical values can stand only once. Like-named read-outs stand apart in the source and are kept apart here. Marks after values point to notes of the source that are not given here.
How the values were obtained:
[1] = biological target: T1, CB1 (rCB1) (Rattus norvegicus, UniProt P20272); experiment: Single-point radioligand displacement screen; type: binding
[2] = Dynamic light scattering, colloidal aggregation; type: physicochemical; settings: Log[compound, replicates, sheet FigS2b
Method: Samples were prepared as 8-point half-log dilutions in filtered 50 mM KPi buffer, pH 7.0 with final DMSO concentration at 1% (v/v). Colloidal particle formation was measured using DynaPro Plate Reader II (Wyatt Technologies). All compounds were screened in triplicate.

[3] = biological target: T2, hCB1 (Homo sapiens, UniProt P21554); experiment: Lance Ultra cAMP accumulation assay, CHO cells; type: cell-based; set-up: expressed in transfected cells; settings: replicates, sheet FigureS2a;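 note: human CB1R stably expressed in CHO cells, ligands co-incubated with forskolin at room temperature, read-out is lowering of forskolin-stimulated cAMP accumulation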
T2 sequence (P21554 whole entry): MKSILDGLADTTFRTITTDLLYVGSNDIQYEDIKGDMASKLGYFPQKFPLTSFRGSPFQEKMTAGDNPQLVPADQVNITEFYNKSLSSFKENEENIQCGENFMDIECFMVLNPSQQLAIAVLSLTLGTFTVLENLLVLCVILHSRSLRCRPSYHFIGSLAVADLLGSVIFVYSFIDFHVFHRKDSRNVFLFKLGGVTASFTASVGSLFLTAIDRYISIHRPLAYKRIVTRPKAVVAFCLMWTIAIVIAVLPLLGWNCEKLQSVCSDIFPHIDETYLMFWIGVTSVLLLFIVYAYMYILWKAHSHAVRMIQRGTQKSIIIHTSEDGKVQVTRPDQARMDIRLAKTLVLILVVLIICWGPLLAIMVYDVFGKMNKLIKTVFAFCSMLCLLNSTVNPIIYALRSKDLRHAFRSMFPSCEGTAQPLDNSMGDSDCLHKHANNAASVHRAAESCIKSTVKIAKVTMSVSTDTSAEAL

[4] = biological target: T2, hCB1; experiment: bioSensAll ebBRET signaling profiling, hCB1; type: cell-based; set-up: host or cells: HEK293SL cells, transient PEI transfection; settings: for Barr2+GRK2 hCB1 response: Barr2+GRK2 biosensor; for Gi1 hCB1 / GoB hCB1: single replicate values, FigS6a; for EC50: read-out: EC50 [95% CI]; for Emax: normalized to CP-55,940
[5] = biological target: T1, CB1 (rCB1); experiment: Radioligand competition binding, [3H]-CP-55,940, rat brain membranes

T1 sequence (P20272 whole entry): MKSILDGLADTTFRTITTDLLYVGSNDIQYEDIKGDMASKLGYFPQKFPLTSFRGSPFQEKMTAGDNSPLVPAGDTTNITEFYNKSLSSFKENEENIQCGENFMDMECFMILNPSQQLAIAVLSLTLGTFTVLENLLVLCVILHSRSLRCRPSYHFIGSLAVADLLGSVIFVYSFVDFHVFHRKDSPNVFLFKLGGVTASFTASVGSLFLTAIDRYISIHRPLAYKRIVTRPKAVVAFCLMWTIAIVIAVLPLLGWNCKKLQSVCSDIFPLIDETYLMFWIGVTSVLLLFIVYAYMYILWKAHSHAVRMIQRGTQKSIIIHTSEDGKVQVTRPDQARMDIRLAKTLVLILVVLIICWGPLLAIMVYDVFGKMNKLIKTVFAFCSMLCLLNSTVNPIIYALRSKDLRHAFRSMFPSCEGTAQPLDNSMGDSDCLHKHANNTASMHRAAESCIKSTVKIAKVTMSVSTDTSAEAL

For Cc1c(C(=O)OCC2CSc3ccccc3O2)cnn1Cc1ccccc1 (centres unmarked) [‘7800], the “% 1H-CP-55,940 displacement (mean) from single point screen” value ([1]; 10 µM, 1 µM or 300 nM by cell colour (not visible)) was 80.92%, the rep1_displacement ([1]; Figure 1c source data, replicate 1) was 81.9 and the rep2_displacement ([1]; Figure 1c source data, replicate 2) was 79.7. The rep3_displacement ([1]; Figure 1c source data, replicate 3) was 81.1, the DLS scattering intensity ([2]; uM] 0) was 1640000 and 1120000 and 1230000 and the DLS scattering intensity ([2]; uM] 1) was 22000000 and 23800000 and 19200000. The DLS scattering intensity ([2]; uM] 1.49996) was 97300000 and 53900000 and 120000000, the DLS scattering intensity ([2]; uM] 2) was 210000000 and 155600000 and 163000000 and the DLS scattering intensity ([2]; uM] -0.500011) was 631259 and 1270000 and 2510000. The DLS scattering intensity ([2]; uM] -1) was 884292 and 807566 and 1180000, the “cAMP assay signal, concentration-response point” value (“cAMP assay signal” below) ([3]; compound 0.01 nM) was 0.002674 and 0.00241 and 0.002252 and the “cAMP assay signal” value ([3]; compound 0.1 nM) was 0.00346* and 0.001953 and 0.002364. The “cAMP assay signal” value ([3]; compound 1 nM) was 0.002571 and 0.002123 and 0.001894, the “cAMP assay signal” value ([3]; compound 10 nM) was 0.002732 and 0.002198 and 0.002584 and the “cAMP assay signal” value ([3]; compound 100 nM) was 0.002212 and 0.002457 and 0.002193. The “cAMP assay signal” value ([3]; compound 1000 nM) was 0.002381 (2×) and 0.002128, the “cAMP assay signal” value ([3]; compound 10000 nM) was 0.002 and 0.002342 and 0.001808 and the “cAMP assay signal” value ([3]; compound 100000 nM) was 0.001289 and 0.001131 and 0.00137. The “Barr2+GRK2 hCB1 response” value ([4]; Log [Compound] (M) -4.22186) was 3.174, the “Barr2+GRK2 hCB1 response” value ([4]; Log [Compound] (M) -4.63927) was -20.118 and the “Barr2+GRK2 hCB1 response” value ([4]; Log [Compound] (M) -5.05788) was -51.0681. The “Barr2+GRK2 hCB1 response” value ([4]; Log [Compound] (M) -5.47381) was -52.3444, the “Barr2+GRK2 hCB1 response” value ([4]; Log [Compound] (M) -5.89285) was -39.9006 and the “Barr2+GRK2 hCB1 response” value ([4]; Log [Compound] (M) -6.31878) was -51.3872. The “Barr2+GRK2 hCB1 response” value ([4]; Log [Compound] (M) -6.72585) was -54.5779, the “Barr2+GRK2 hCB1 response” value ([4]; Log [Compound] (M) -7.14267) was -56.4924 and the “Barr2+GRK2 hCB1 response” value ([4]; Log [Compound] (M) -7.55284) was -57.7686. For the same compound, the “Barr2+GRK2 hCB1 response” value ([4]; Log [Compound] (M) -8) was -46.9202, the “Barr2+GRK2 hCB1 response” value ([4]; Log [Compound] (M) -8.22186) was -10.8649 and the “Barr2+GRK2 hCB1 response” value ([4]; Log [Compound] (M) -8.39794) was -42.7722. For the same compound, the “Barr2+GRK2 hCB1 response” value ([4]; Log [Compound] (M) -8.68787) was -27.1376, the “Barr2+GRK2 hCB1 response” value ([4]; Log [Compound] (M) -9.15521) was -45.9629 and the “Barr2+GRK2 hCB1 response” value ([4]; Log [Compound] (M) -9.61989) was -54.897. For the same compound, the “Barr2+GRK2 hCB1 response” value ([4]; Log [Compound] (M) -10.0969) was -61.2784, the “Barr2+GRK2 hCB1 response” value ([4]; Log [Compound] (M) -10.5529) was -43.4104 and the “Barr2+GRK2 hCB1 response” value ([4]; Log [Compound] (M) -11.0177) was -60.6403. For the same compound, the “Barr2+GRK2 hCB1 response” value ([4]; Log [Compound] (M) -11.4949) was -45.3248, the “Barr2+GRK2 hCB1 response” value ([4]; Log [Compound] (M) -11.9208) was -40.5387 and the “Barr2+GRK2 hCB1 response” value ([4]; Log [Compound] (M) -12.3979) was -30.0093. The “Barr2+GRK2 hCB1 response” value ([4]; Log [Compound] (M) -12.8861) was -43.4104, the “Barr2+GRK2 hCB1 response” value ([4]; Log [Compound] (M) -13.3979) was -3.845 and the “Gi1 hCB1” value ([4]; Log [Compound] (M) -4.22186) was 25.6433. For the same compound, the “GoB hCB1” value ([4]; Log [Compound] (M) -4.22186) was 18.8832, the “Gi1 hCB1” value ([4]; Log [Compound] (M) -4.63927) was 18.3425 and the “GoB hCB1” value ([4]; Log [Compound] (M) -4.63927) was 15.081. For the same compound, the “Gi1 hCB1” value ([4]; Log [Compound] (M) -5.05788) was 16.1253, the “GoB hCB1” value ([4]; Log [Compound] (M) -5.05788) was 13.1365 and the “Gi1 hCB1” value ([4]; Log [Compound] (M) -5.47381) was 12.8471. The “GoB hCB1” value ([4]; Log [Compound] (M) -5.47381) was 14.5949, the “Gi1 hCB1” value ([4]; Log [Compound] (M) -5.89285) was 10.5191 and the “GoB hCB1” value ([4]; Log [Compound] (M) -5.89285) was 11.0184. The “Gi1 hCB1” value ([4]; Log [Compound] (M) -6.31878) was 9.3, the “GoB hCB1” value ([4]; Log [Compound] (M) -6.31878) was 4.265 and the “Gi1 hCB1” value ([4]; Log [Compound] (M) -6.72585) was 1.761. The “GoB hCB1” value ([4]; Log [Compound] (M) -6.72585) was -3.895, the “Gi1 hCB1” value ([4]; Log [Compound] (M) -7.14267) was -0.6935 and the “GoB hCB1” value ([4]; Log [Compound] (M) -7.14267) was -5.024. The “Gi1 hCB1” value ([4]; Log [Compound] (M) -7.55284) was -2.087, the “GoB hCB1” value ([4]; Log [Compound] (M) -7.55284) was -3.843 and the “Gi1 hCB1” value ([4]; Log [Compound] (M) -8) was -2.0396. The “GoB hCB1” value ([4]; Log [Compound] (M) -8) was -4.659, the “Gi1 hCB1” value ([4]; Log [Compound] (M) -8.22186) was 3.424 and the “GoB hCB1” value ([4]; Log [Compound] (M) -8.22186) was -0.09294. For the same compound, the “Gi1 hCB1” value ([4]; Log [Compound] (M) -8.39794) was -0.9469, the “GoB hCB1” value ([4]; Log [Compound] (M) -8.39794) was -3.478 and the “Gi1 hCB1” value ([4]; Log [Compound] (M) -8.68787) was -0.4717. For the same compound, the “GoB hCB1” value ([4]; Log [Compound] (M) -8.68787) was -5.371, the “Gi1 hCB1” value ([4]; Log [Compound] (M) -9.15521) was -0.4876 and the “GoB hCB1” value ([4]; Log [Compound] (M) -9.15521) was -5.492. For the same compound, the “Gi1 hCB1” value ([4]; Log [Compound] (M) -9.61989) was 0.05088, the “GoB hCB1” value ([4]; Log [Compound] (M) -9.61989) was -8.027 and the “Gi1 hCB1” value ([4]; Log [Compound] (M) -10.0969) was -0.4084. For the same compound, the “GoB hCB1” value ([4]; Log [Compound] (M) -10.0969) was -5.128, the “Gi1 hCB1” value ([4]; Log [Compound] (M) -10.5529) was -1.2 and the “GoB hCB1” value ([4]; Log [Compound] (M) -10.5529) was -2.958. For the same compound, the “Gi1 hCB1” value ([4]; Log [Compound] (M) -11.0177) was -3.528, the “GoB hCB1” value ([4]; Log [Compound] (M) -11.0177) was -7.871 and the “Gi1 hCB1” value ([4]; Log [Compound] (M) -11.4949) was -2.61. The “GoB hCB1” value ([4]; Log [Compound] (M) -11.4949) was -5.562, the “Gi1 hCB1” value ([4]; Log [Compound] (M) -11.9208) was -3.829 and the “GoB hCB1” value ([4]; Log [Compound] (M) -11.9208) was -5.683. For the same compound, the “Gi1 hCB1” value ([4]; Log [Compound] (M) -12.3979) was -3.75, the “GoB hCB1” value ([4]; Log [Compound] (M) -12.3979) was -6.656 and the “Gi1 hCB1” value ([4]; Log [Compound] (M) -12.8861) was -1.469. The “GoB hCB1” value ([4]; Log [Compound] (M) -12.8861) was -6.1521, the “Gi1 hCB1” value ([4]; Log [Compound] (M) -13) was 0.2409 and the “GoB hCB1” value ([4]; Log [Compound] (M) -13) was -5.215. The “Gi1 hCB1” value ([4]; Log [Compound] (M) cell empty) was -0.4876, the “GoB hCB1” value ([4]; Log [Compound] (M) cell empty) was -5.406 and the “pEC50 [95% CI]” value ([4]; hCB1 Gi1) was 5.2 [6.0]. For the same compound, the “pEC50 [95% CI]” value ([4]; hCB1 GoB) was 6.2 [5.9 – 6.4], the EC50 ([4]; hCB1 Gi1) was 6.79 µM and the EC50 ([4]; hCB1 GoB) was 0.597 µM. For the same compound, the Emax ([4]; read-out: Emax [95% CI], hCB1 Gi1) was 34%, the Emax ([4]; read-out: Emax [95% CI], hCB1 GoB) was 21% and the “radioligand binding remaining, competition curve (Figure2e), replicate values” (from here on “radioligand binding remaining”) ([5]; log[drug] -3.643) was 10.4237 and 31.3638 and 29.0535. The “radioligand binding remaining” value ([5]; log[drug] -4.35655) was 33.4463 and 9.669 and 4.937, the “radioligand binding remaining” value ([5]; log[drug] -5.07) was 28.6441 and 35.1835 and 32.9974 and the “radioligand binding remaining” value ([5]; log[drug] -5.783) was 65.4237 and 64.1301 and 55.9597. For the same compound, the “radioligand binding remaining” value ([5]; log[drug] -6.496) was 99.1808 and 92.7484 and 90.0088, the “radioligand binding remaining” value ([5]; log[drug] -7.21) was 109.096 and 99.3733 and 111.043 and the “radioligand binding remaining” value ([5]; log[drug] -7.923) was 105.847 and 88.1826 and 105.215. The “radioligand binding remaining” value ([5]; log[drug] -8.636) was 93.4322 and 101.298 and 96.7572 and the “pKi [95% CI]” value ([5]; rCB1) was 6.0 [5.78 – 6.21].

From paper PMC11882969 (Nature Communications, 2025)
